The values below come from the supplement of paper PMC11061612.

Holding throughout (assay): Bliss excess, mean over the matrix (fraction); higher = more synergy
Assay [1] has as its system SBC-5 (Small Cell Lung Carcinoma). In a few lines: (§1)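 After 24 hours at 37°C and 5% CO2 in 1536-well plates, cells in DMEM/F12 or RPMI plus 10% FBS received two-drug dose matrices for 72 hours. Viability came from CellTiter-Glo 2.0 luminescence and was scaled as inhibition, anchored at 0 by vehicle wells and at 1 by blank wells. Combination Emax is taken as the second-highest inhibition in the matrix, and Bliss excess as the observed combination effect less EA + EB − EA·EB, with EA and EB the single-agent effects.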

In assay [2] the test system is Daudi (Burkitt's Lymphoma). In a few lines:
as §1

Assay [3] concerns NCI-H1975 (Lung Adenocarcinoma). In a few lines:
as §1

The subject of assay [4] is NCI-H1648 (Lung Adenocarcinoma). In a few lines: as §1
Assay [5] has as its system JJN-3 (Plasma Cell Myeloma). In a few lines:
as §1

The test system of assay [6] is COR-L105 (Lung Adenocarcinoma). In a few lines: as §1
A further assay relates to SK-N-DZ (Neuroblastoma). In a few lines: as §1
For assay [7], the system named is NCI-H1944 (Lung Adenocarcinoma). In a few lines: as §1
In assay [8] the test system is BC-1 (B-Cell Non-Hodgkin's Lymphoma). In a few lines:
as §1

For assay [9], the system named is C2BBe1 (Colorectal Carcinoma). In a few lines:
as §1

The test system of assay [10] is RPMI-8402 (T-Lymphoblastic Leukemia). In a few lines:
as §1

Assay [11] deals with MRK-nu-1 (Breast Carcinoma). In a few lines: as §1
The test system of assay [12] is HT-3 (Cervical Carcinoma). In a few lines:
as §1

The test system of assay [13] is NCI-H2009 (Lung Adenocarcinoma). In a few lines: as §1
Assay [14] has as its system ATN-1 (T-Lymphoblastic Leukemia). In a few lines:
as §1

In assay [15] the test system is GRANTA-519 (B-Cell Non-Hodgkin's Lymphoma). In a few lines:
as §1

The subject of assay [16] is L-363 (Plasma Cell Myeloma). In a few lines: as §1
Assay [17] concerns SBC-3 (Small Cell Lung Carcinoma). In a few lines:
as §1

For the next assay, the system named is NCI-H2452 (Mesothelioma). In a few lines: as §1
Assay [18] relates to SUP-HD1 (Hodgkin's Lymphoma). In a few lines: as §1

With `COc1nnc2ccc(N3CCC(c4ccc(OCCN5CCN(C)C(=O)[C@H]5C)cc4)CC3)nn12` [AZD5153] + C=CCn1c(=O)c2cnc(Nc3ccc(N4CCN(C)CC4)cc3)nc2n1-c1cccc(C(C)(C)O)n1 [AZD1775] (first compound max 1 µM, partner max 1 µM), the Bliss excess in assay [1] was -0.015; in assay [2], -0.0642; in [3], 0.0251; in assay [4], -0.0816; in [5] it was -0.0673; in assay [6] it was -0.0063. In addition, the Bliss excess in the assay on SK-N-DZ (Neuroblastoma) is -0.0084; in assay [7], 0.0333; in assay [8], -0.048; in [9], -0.0724; in assay [10] it was -0.0212; in assay [11], -0.0354. In addition, the Bliss excess in [12] is -0.0104; in assay [13], -0.0229; in [14], -0.0494; in assay [15], -0.0227; in [16] it was -0.0546; in assay [17], -0.0111. The Bliss excess is -0.0525 with NCI-H2452 (Mesothelioma) and -0.114 in assay [18].
As to `COc1cccc2c1C(=O)c1c(O)c3c(c(O)c1C2=O)C[C@@](O)(C(=O)CO)C[C@@H]3O[C@H]1C[C@H](N)[C@H](O)[C@H](C)O1` [Doxorubicin] + Cc1cc2ncnn2cc1Nc1ncc2c(n1)n(C1CCOCC1)c(=O)n2C [AZD7648] (first compound max 1 µM, 7x7, partner max 10 µM), the Bliss excess in assay [1] was found to be 0.0341; in assay [2] it was 0.0985; in assay [3] it was 0.0542; in assay [4] it was 0.0456; in assay [5], 0.0238; in [6], 0.022. The Bliss excess in the assay on SK-N-DZ (Neuroblastoma) is 0.112; in assay [7] it was 0.0739; in assay [8], 0.094; in assay [9] it was -0.0082; in assay [10], 0.0782; in assay [11], 0.0157. For the same compound, the Bliss excess in assay [12] came to 0.127; in assay [13], 0.0653; in [14] it was 0.0967; in assay [15], 0.102; in assay [16] it was 0.0622; in [17], 0.0553. For the same compound, the Bliss excess with NCI-H2452 (Mesothelioma) was 0.0928; in assay [18], 0.0727.
In the case of `Cc1c2c(nn1C)CSCc1cc(n(C)n1)CSc1cc(c3ccccc3c1)OCCCc1c(C(=O)O)n(C)c3c-2c(Cl)ccc13` [AZD5991] + C1CN(CCC1(C(=O)N[C@@H](CCO)C2=CC=C(C=C2)Cl)N)C3=NC=NC4=C3C=CN4 [Capivasertib] (first compound max 1 µM, 7x7, partner max 3 µM), the Bliss excess in [1] was -0.0069; in assay [2] it was 0.0353; in assay [3], 0.0322; in assay [4], -0.0326; in assay [5] it was -0.041; in assay [6], -0.0019. Further, the Bliss excess in the assay with SK-N-DZ (Neuroblastoma) was -0.001; in assay [7] it was 0.0254; in assay [8], 0.0256; in assay [9], -0.0214; in assay [10], 0.0508; in assay [11], 0.0055. The Bliss excess is 0.0198 in [12]; -0.0207 in [13]; 0.0208 in assay [14]; -0.0295 in assay [15]; 0.0476 in assay [16]; -0.0316 in assay [17]. Moreover, the Bliss excess with NCI-H2452 (Mesothelioma) was -0.0146; in assay [18] it was -0.0833.
As for `CC1(C)CCC(CN2CCN(c3ccc(C(=O)NS(=O)(=O)c4ccc(NCC5CCOCC5)c([N+](=O)[O-])c4)c(Oc4cnc5[nH]ccc5c4)c3)CC2)=C(c2ccc(Cl)cc2)C1` [Venetoclax] + Cc1cc2ncnn2cc1Nc1ncc2c(n1)n(C1CCOCC1)c(=O)n2C [AZD7648] (first compound max 1 µM, 7x7, partner max 10 µM), the Bliss excess was 0.0086 in assay [1]; 0.004 in assay [2]; -0.0114 in [3]; -0.0431 in [4]; 0.0741 in assay [5]; -0.0512 in assay [6]. Besides, the Bliss excess is -0.0112 in the assay on SK-N-DZ (Neuroblastoma); 0.0189 in [7]; 0.017 in [8]; -0.0132 in assay [9]; 0.0235 in [10]; 0.0037 in [11]. For the same compound, the Bliss excess in assay [12] is -0.016; in assay [13], -0.053; in assay [14], 0.0196; in assay [15], 0.0007; in assay [16], 0.0281; in [17] it was -0.0729. Further, the results for the Bliss excess (in the assay with NCI-H2452 (Mesothelioma); in [18]) were -0.0388 and -0.0659, respectively.
On to `CC(=O)c1c(C)c2cnc(Nc3ccc(N4CCNCC4)cn3)nc2n(C2CCCC2)c1=O` [Palbociclib] + Cc1c2c(nn1C)CSCc1cc(n(C)n1)CSc1cc(c3ccccc3c1)OCCCc1c(C(=O)O)n(C)c3c-2c(Cl)ccc13 [AZD5991] (first compound max 10 µM, 7x7, partner max 1 µM), for which the Bliss excess in [1] is -0.0171; in assay [2] it was 0.0059; in assay [3], -0.0357; in assay [4], -0.0084; in assay [5], -0.0434; in assay [6], -0.0088. Moreover, the Bliss excess in the assay with SK-N-DZ (Neuroblastoma) was 0.0655; in assay [7], 0.0187; in assay [8] it was -0.0028; in assay [9], -0.0782; in assay [10], 0.0046; in assay [11], -0.0869. In addition, the Bliss excess was -0.0751 in assay [12]; -0.0567 in assay [13]; -0.0498 in [14]; 0.0039 in [15]; -0.0147 in assay [16]; -0.043 in assay [17]. The Bliss excess with NCI-H2452 (Mesothelioma) was -0.0651; in assay [18], -0.0704.
Take `COc1cccc(OCCCN)c1-c1cc(Nc2cnc(C#N)cn2)n[nH]1` [Prexasertib] + CN(C)CCCOc1ccc(-c2ccc3ncc4c(c3c2)n(C2CCOCC2)c(=O)n4C)cn1 [AZD0156] (first compound max 1 µM, 7x7, partner max 1 µM): the Bliss excess in assay [1] is -0.0086; in [2], -0.0041; in [3] it was 0.026; in assay [4], -0.0136; in assay [5], 0.0057; in assay [6], -0.0428. Further, the Bliss excess was 0.0108 with SK-N-DZ (Neuroblastoma); 0.0331 in [7]; -0.0057 in assay [8]; 0.0131 in assay [9]; -0.0172 in assay [10]; 0.0456 in assay [11]. Also, the Bliss excess is 0.0366 in assay [12]; 0.019 in [13]; 0.0102 in [14]; -0.035 in [15]; -0.039 in [16]; -0.0046 in assay [17]. Moreover, the values for the Bliss excess (in the assay with NCI-H2452 (Mesothelioma); in assay [18]) were -0.0554 and -0.0442, respectively.
For `Cc1c2c(nn1C)CSCc1cc(n(C)n1)CSc1cc(c3ccccc3c1)OCCCc1c(C(=O)O)n(C)c3c-2c(Cl)ccc13` [AZD5991] + CCN(CCO)CCCOc1ccc2c(Nc3cc(CC(=O)Nc4cccc(F)c4)[nH]n3)ncnc2c1 [AZD2811] (first compound max 1 µM, 7x7, partner max 1 µM), the Bliss excess in assay [1] is 0.0523; in assay [2], 0.263; in assay [3], 0.0047; in assay [4] it was 0.0051; in assay [5], 0.0225; in [6], -0.0986. Also, the Bliss excess with SK-N-DZ (Neuroblastoma) was 0.043; in assay [7] it was 0.0457; in assay [8] it was 0.0403; in assay [9] it was -0.0093; in assay [10], 0.0412; in assay [11], 0.0321. In addition, the Bliss excess was 0.162 in [12]; 0.071 in [13]; -0.0413 in assay [14]; 0.109 in assay [15]; 0.0523 in [16]; 0.0082 in assay [17]. The values for the Bliss excess (in the assay with NCI-H2452 (Mesothelioma); in assay [18]) were -0.0486 and 0.0311, respectively.
